Experimental data reported in article PMC7377474, “Preclinical characterization of CPL302-253, a selective inhibitor of PI3Kδ, as the candidate for the inhalatory treatment and prevention of Asthma” (PLoS ONE, 2020).

What was measured:
[1] = tested on: GPCR, transporters, ion channels, nuclear receptors, kinases and non-kinase enzymes; assay: SafetyScan44 panel, overall; assay type: cell-based; conditions: 10 μM; negative if not exceeding 70% of the control
Description: SafetyScan44 assay was performed by DiscoverX according to service provider’s protocol.

[2] = molecular target: T1, PI3Kδ (Homo sapiens, UniProt O00329); assay: KINOMEScan competitive binding assay, Kd
T1 construct: purchased Discoverex (KINOMEscan service)
T1 sequence (O00329 whole entry): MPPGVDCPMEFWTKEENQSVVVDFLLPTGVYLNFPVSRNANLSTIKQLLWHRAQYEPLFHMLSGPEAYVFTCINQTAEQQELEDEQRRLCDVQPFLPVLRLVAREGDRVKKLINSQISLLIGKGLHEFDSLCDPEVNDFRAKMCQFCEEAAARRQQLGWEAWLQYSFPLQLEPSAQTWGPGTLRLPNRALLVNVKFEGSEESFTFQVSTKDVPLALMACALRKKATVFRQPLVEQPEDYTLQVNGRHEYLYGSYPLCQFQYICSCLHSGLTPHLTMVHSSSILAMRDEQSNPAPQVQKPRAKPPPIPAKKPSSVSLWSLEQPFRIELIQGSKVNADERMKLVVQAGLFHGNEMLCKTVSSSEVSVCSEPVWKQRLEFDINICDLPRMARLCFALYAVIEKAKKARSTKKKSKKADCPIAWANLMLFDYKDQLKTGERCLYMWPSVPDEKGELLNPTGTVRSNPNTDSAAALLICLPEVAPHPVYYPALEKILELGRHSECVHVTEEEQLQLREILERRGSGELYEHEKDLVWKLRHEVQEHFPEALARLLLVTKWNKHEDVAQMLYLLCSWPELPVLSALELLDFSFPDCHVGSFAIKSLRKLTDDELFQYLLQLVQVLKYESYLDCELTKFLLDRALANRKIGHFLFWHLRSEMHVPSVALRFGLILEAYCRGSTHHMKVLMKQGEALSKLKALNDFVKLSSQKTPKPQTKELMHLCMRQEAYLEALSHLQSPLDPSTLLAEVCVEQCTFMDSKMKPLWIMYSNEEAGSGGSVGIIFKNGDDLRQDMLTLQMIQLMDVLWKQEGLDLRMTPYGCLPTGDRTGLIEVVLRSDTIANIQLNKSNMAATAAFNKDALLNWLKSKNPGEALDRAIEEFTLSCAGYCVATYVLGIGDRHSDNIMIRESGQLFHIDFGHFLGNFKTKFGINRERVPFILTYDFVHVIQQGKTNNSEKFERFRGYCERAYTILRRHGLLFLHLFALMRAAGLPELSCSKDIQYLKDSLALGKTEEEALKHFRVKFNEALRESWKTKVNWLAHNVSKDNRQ
Description: The inhibitor-kinase binding affinity was assessed in KINOMEscan™ assay (Discoverex) according to service provider’s protocol. In brief, in this binding assay the studied compound in solution is incubated with DNA-tagged kinase and kinase active-site directed ligand bound to the beads. The compound competes for binding to kinase with the immobilized ligand. After incubation beads are removed from the solution and kinase bound to ligand is quantified by qPCR. The strength of compound binding is determined based on its ability to block kinase-ligand binding. 11-point 3-fold serial dilution of CPL302-253 was used in order to determine its binding constants (Kd) against different isotypes of class I PI3K. The single concentration of CPL302-253 was used in order to determine its specificity in abroad panel of 468 human kinases. The measure of compounds affinity to each kinase in the panel was the percentage of kinase activity inhibition by tested ligand in comparison to the control.

CC(C)(C)N1CCN(Cc2cc3nc(-c4cncc5[nH]ccc45)cc(N4CCOCC4)n3n2)CC1 [CPL302-253]
inhibition or activation of the studied pathways in SafetyScan44 [1]: neither inhibits nor activates any of the studied pathways | Kd [2]: 0.85 nM
